US20260285853A1, “COMPOUNDS AND METHODS FOR MODULATING SPLICING” (REMIX THERAPEUTICS INC., priority 2023, published 2026)

Legend:
Format in all cases: cell-based
HTT mRNA [1] = assay: Splicing RT-qPCR assay, canonical (CJ) and alternative (AJ) junction mRNA, K562 cells; conditions: Homo sapiens, K562.3 cells, 24 hours; for AC50: read-out: HTT AJ (AC50, increase in AJ mRNA); for IC50: read-out: HTT CJ (IC50, decrease in CJ mRNA)
Protocol: (§1) Compounds described herein were used to modulate RNA transcript abundance in cells. The expression of a target mRNA was measured by detecting the formation of an exon-exon junction in the canonical transcript (CJ). A compound mediated exon-inclusion event was detected by observing an increase in formation of a new junction with an alternative exon (AJ). Real-time qPCR assays were used to detect these splicing switches and interrogate the potency of various compounds towards different target genes. A high-throughput real time quantitative PCR (RT-qPCR) assay was developed to measure these two isoforms of the mRNA (CJ and AJ) for exemplary genes, such as HTT, SMN2, and MYB, together with a control housekeeping gene, GAPDH or GUSB or PPIA, used for normalization. Briefly, the A673 or K562 cell line was treated with various compounds described herein (e.g., compounds of Formula (I)). After treatment, the levels of the HTT, MYB, or SMN2 mRNA targets were determined from each sample of cell lysate by cDNA synthesis followed by qPCR.
(§2) • Cells-to-CT 1-step kit: ThermoFisher A25602, Cells-to-CT lysis reagent: ThermoFisher 4391851C, TaqMan™ Fast Virus 1-Step Master Mix: ThermoFisher 4444436 • GAPDH: VIC-PL, ThermoFisher 4326317E (Assay: Hs99999905_m1)—used for K562/suspension cell lines • GUSB: VIC-PL, ThermoFisher 4326320E (Assay: Hs99999908_m1)—used for K562/suspension cell lines • PPIA: VIC-PL, ThermoFisher 4326316E (Assay: Hs99999904_m1)—used for A673/adherent cell lines
(§3) The K562 cell line was cultured in IMDM with 10% FBS. For K562, cells were diluted with full growth media and plated in either a 96-well plate (50,000 cells in 50 uL media per well) or a 384-well plate (8,000-40,000 cells in 45 uL media per well). An 11-point 3-fold serial dilution of the compounds were made in DMSO then diluted in media in an intermediate plate. Compound was transferred from the intermediate plate to the cell plate with the top dose at a final concentration of 10 uM in the well. Final DMSO concentration was kept at or below 0.25%. Final volume was 100 uL for 96-well plate and 50 uL for 384-well plate. The cell plate was then placed in an incubator at 37° C. with 5% CO2 for 24 hours.
(§4) The cells were then gently washed with 50 uL-100 uL cold PBS before proceeding to addition of lysis buffer. 30 uL-50 uL of room temperature lysis buffer with DNAse I (and optionally RNAsin) was added to each well. Cells were shaken/mixed thoroughly at room temperature for 5-10 minutes for lysis to take place and then 3 uL-5 uL of room temperature stop solution was added and wells were shaken/mixed again. After 2-5 minutes, the cell lysate plate was transferred to ice for RT-qPCR reaction setup. The lysates could also be frozen at −80° C. for later use.
(§5) In some cases, a direct lysis buffer was used. An appropriate volume of 3× lysis buffer (10 mM Tris, 150 mM NaCl, 1.5%-2.5% Igepal and 0.1-1 U/uL RNAsin, pH 7.4) was directly added to either K562 or A673 cells in media and mixed by pipetting 3 times. The plates were then incubated at room temperature with shaking/rocking for 20-50 minutes to allow for lysis to take place. After this time, the cell lysate plate was transferred to ice to set up for the RT-qPCR reactions. The lysates could also be frozen at −80° C. for later use.
(§6) To set up 10 uL RT-qPCR reactions, cell lysates were transferred to 384-well qPCR plates containing the master mix according to the table below. The plates were sealed, gently vortexed, and spun down before the run. The volumes were adjusted accordingly in some instances where the reaction was carried in 20 uL. The table below summarizes the components of the RT-qPCR reactions:
(§7) The RT-qPCR reaction was performed using a QuantStudio (ThermoFisher) under the following fast cycling conditions. All samples and standards were analyzed at least in duplicate. In some instances, bulk room temperature (RT) step of 5-10 minutes was completed for all plates before proceeding with qPCR. […]

MYB mRNA [2] = assay: as above; conditions: Homo sapiens, K562.3 cells, 24 hours; for AC50: read-out: MYB AJ (AC50, increase in AJ mRNA); for IC50: read-out: MYB CJ (IC50, decrease in CJ mRNA)
Protocol: as §1, §2, §3, §4, §5, §6, §7

MYB mRNA [3] = assay: Splicing RT-qPCR assay (THP), Table 2A; conditions: Table 2A (THP); for AC50: AJ mRNA increase, read-out: MYB AJ (increase in alternative junction mRNA, AC50); for IC50: CJ mRNA decrease, read-out: MYB CJ (decrease in canonical junction mRNA, IC50)
HTT mRNA [4] = assay: Gene panel canonical junction qPCR assay, decrease in CJ mRNA, Table 3; conditions: decrease in canonical junction (CJ) mRNA, gene panel qPCR, Table 3
How it was run: (§8)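 IC50 is the concentration giving 50% response in decrease of the canonical junction transcript, fitted with a 4-parameter logistic equation. Transcripts were quantified by RT-qPCR in A673 or K562 cells after 24 h exposure to compounds dosed up to 10 uM in 3-fold steps.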

MYB mRNA [5] = assay: as above; conditions: decrease in canonical junction (CJ) mRNA, gene panel qPCR, Table 3
How it was run: as §8

SMN2 mRNA = assay: as above; conditions: decrease in canonical junction (CJ) mRNA, gene panel qPCR, Table 3
How it was run: as §8

[6] = tested on: SH-SY5Y (human neuroblastoma) cells; assay: Cell viability, Cell Titer Glo 2.0 assay; conditions: read-out: Viability SHSY5Y.3 GI50
How it was run: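 Steps: serial DMSO dilution of compound, 1:100 dilution into medium, addition to cells (0.1% DMSO final). Incubate 72 h at 37 °C, 5% CO2. Assay with CellTiter-Glo 2.0 reagent.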

SMILES | IC50 (HTT mRNA [1]) | IC50 (MYB mRNA [2]) | IC50 (MYB mRNA [3]) | IC50 (HTT mRNA [4]) | IC50 (MYB mRNA [5]) | IC50 (SMN2 mRNA) | GI50 [6] | AC50 (HTT mRNA [1]) | AC50 (MYB mRNA [2]) | AC50 (MYB mRNA [3])
Cc1cn2cc(NC(=O)c3ccc(N4CC[C@@H](NCC5COC5)C4)c4cn(C)nc34)cc(F)c2n1 [Compound 104, N-(8-fluoro-2-methylimidazo[1,2-a]pyridin-6-yl)-2-methyl-4-[(3R)-3-[(oxetan-3-ylmethyl)amino]pyrrolidin-1-yl]indazole-7-carboxamide] | 1 to 10 µM | < 0.1 µM | < 0.1 µM | 1 to 10 µM | < 0.1 µM | < 0.1 µM | 0.1 to 1 µM | 1 to 10 µM | < 0.1 µM | < 0.1 µM
CN[C@@H]1CCN(c2ccc(C(=O)Nc3cc(F)c4nn(C)cc4c3)c3nn(C)cc23)C1 [Compound 140, N-(7-fluoro-2-methyl-indazol-5-yl)-2-methyl-4-[(3R)-3-(methylamino)pyrrolidin-1-yl]indazole-7-carboxamide] | 1 to 10 µM | 0.1 to 1 µM | 0.1 to 1 µM | 1 to 10 µM | 0.1 to 1 µM | < 0.1 µM | 1 to 10 µM | 1 to 10 µM | 0.1 to 1 µM | 0.1 to 1 µM
CNC12CC(C1)N(c1ccc(C(=O)Nc3cc(F)c4nc(C)cn4c3)c3nn(C)cc13)C2 [Compound 135, N-(8-fluoro-2-methyl-imidazo[1,2-a]pyridin-6-yl)-2-methyl-4-[4-(methylamino)-2-azabicyclo[2.1.1]hexan-2-yl]-indazole-7-carboxamide] | 0.1 to 1 µM | 0.1 to 1 µM | 0.1 to 1 µM | 0.1 to 1 µM | 0.1 to 1 µM | < 0.1 µM | 0.1 to 1 µM | 1 to 10 µM | 0.1 to 1 µM | < 0.1 µM
CCN[C@H]1CCN(c2cc(OC)c(C(=O)Nc3cc(F)c4nc(C)cn4c3)c3nn(C)cc23)C1 [Compound 146] | > 10 µM | > 10 µM | > 10 µM | > 10 µM | > 10 µM | 1 to 10 µM | > 10 µM | > 10 µM | > 10 µM | > 10 µM
CCN[C@H]1CCN(c2cc(O)c(C(=O)Nc3cc(F)c4nc(C)cn4c3)c3nn(C)cc23)C1 [Compound 143, 4-[(3S)-3-(ethylamino)pyrrolidin-1-yl]-N-(8-fluoro-2-methyl-imidazo[1,2-a]pyridin-6-yl)-6-hydroxy-2-methyl-indazole-7-carboxamide] | 1 to 10 µM | < 0.1 µM | < 0.1 µM | 1 to 10 µM | < 0.1 µM | < 0.1 µM | 0.1 to 1 µM | 1 to 10 µM | < 0.1 µM | < 0.1 µM

Further lines, with some results ahead:

IC50 (HTT mRNA [1]) | IC50 (MYB mRNA [2]) | IC50 (MYB mRNA [3]) | IC50 (HTT mRNA [4]) | IC50 (MYB mRNA [5]) | IC50 (SMN2 mRNA) | GI50 [6] | SMILES | AC50 (HTT mRNA [1]) | AC50 (MYB mRNA [2]) | AC50 (MYB mRNA [3])
> 10 µM | > 10 µM | > 10 µM | > 10 µM | > 10 µM | > 10 µM | > 10 µM | Cc1cn2cc(C(=O)Nc3c(F)cc(N4CCNCC4)c4cn[nH]c34)cc(F)c2n1 [Compound 267] | > 10 µM | > 10 µM | > 10 µM
0.1 to 1 µM | 0.1 to 1 µM | 0.1 to 1 µM | 0.1 to 1 µM | 0.1 to 1 µM | < 0.1 µM | 1 to 10 µM | Cc1cn2cc(NC(=O)c3ccc(N4CCNCC4)c4nonc34)cc(F)c2n1 [Compound 263, N-(8-fluoro-2-methyl-imidazo[1,2-a]pyridin-6-yl)-4-piperazin-1-yl-2,1,3-benzoxadiazole-7-carboxamide] | 1 to 10 µM | 0.1 to 1 µM | 0.1 to 1 µM
1 to 10 µM | < 0.1 µM | < 0.1 µM | 1 to 10 µM | < 0.1 µM | < 0.1 µM | < 0.1 µM | CCNC1CCN(c2cc(F)c(C(=O)Nc3cn4cc(C)nc4c(F)c3OC)c3[nH]ncc23)CC1 [Compound 173, 4-[4-(ethylamino)-1-piperidyl]-6-fluoro-N-(8-fluoro-7-methoxy-2-methyl-imidazo[1,2-a]pyridin-6-yl)-1H-indazole-7-carboxamide] | 1 to 10 µM | < 0.1 µM | < 0.1 µM
0.1 to 1 µM | < 0.1 µM | < 0.1 µM | 0.1 to 1 µM | < 0.1 µM | < 0.1 µM | 0.1 to 1 µM | COC1CC(N[C@H]2CCN(c3ccc(C(=O)Nc4cc(F)c5nc(C)cn5c4)c4nn(C)cc34)C2)C1 (stereo partly drawn) [Compound 268, N-(8-fluoro-2-methyl-imidazo[1,2-a]pyridin-6-yl)-4-[(3S)-3-[(3-methoxy-cyclobutyl)amino]pyrrolidin-1-yl]-2-methyl-indazole-7-carboxamide] | 1 to 10 µM | 0.1 to 1 µM | < 0.1 µM
1 to 10 µM | 0.1 to 1 µM | 0.1 to 1 µM | 1 to 10 µM | 0.1 to 1 µM | < 0.1 µM | 1 to 10 µM | Cc1cn2cc(NC(=O)c3ccc(N4CCC5NCCC5C4)c4cn(C)nc34)cc(F)c2n1 (stereo not shown) [Compound 169, N-(8-fluoro-2-methyl-imidazo[1,2-a]-pyridin-6-yl)-2-methyl-4-(octahydro-pyrrolo[3,2-c]pyridin-5-yl)indazole-7-carboxamide 2,2,2-trifluoroacetate] | 1 to 10 µM | 0.1 to 1 µM | < 0.1 µM
